Here are results for two molecules from patent US20100048633A1, “Piperidine-4-acrylamides” (priority 2007, published 2010).

pIC50: −log10 of the molar value.

For one series, the target named is T1, human CCR3 (Homo sapiens, UniProt P51677).
T1 construct: expressed in transfected cells; membranes
T1 sequence (P51677 1-355): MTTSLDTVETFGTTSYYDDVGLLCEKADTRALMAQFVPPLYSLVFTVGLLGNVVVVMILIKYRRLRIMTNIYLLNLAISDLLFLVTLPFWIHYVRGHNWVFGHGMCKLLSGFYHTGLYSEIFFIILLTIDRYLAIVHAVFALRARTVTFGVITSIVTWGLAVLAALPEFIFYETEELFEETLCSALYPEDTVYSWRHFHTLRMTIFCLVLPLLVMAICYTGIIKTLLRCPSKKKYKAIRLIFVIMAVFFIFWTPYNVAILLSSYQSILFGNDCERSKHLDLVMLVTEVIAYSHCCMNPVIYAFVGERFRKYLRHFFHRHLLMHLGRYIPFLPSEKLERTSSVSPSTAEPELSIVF
Briefly: binding of [125I]-human eotaxin to human CCR3 (SPA, membranes of RBL-2H3 cells expressing CCR3). The settings on record: [125I]-human eotaxin 50 pM, 4 hours at room temperature; read-out: IC50 (concentration of test compound at which 50% inhibition of eotaxin binding to CCR3 occurs). On the procedure: In this assay the effect of the compounds of the present invention on the binding of human eotaxin to human CCR3 is determined. Recombinant cells expressing human CCR3 are captured by wheatgerm agglutinin (WGA) polyvinyltoluidene (PVT) SPA beads (available from Amersham), through a specific interaction between the WGA and carbohydrate residues of glycoproteins on the surface of the cells. [^125I]-human eotaxin (available from Amersham) binds specifically to CCR3 receptors bringing the [^125I]-human eotaxin in close proximity to the SPA beads. Emitted â-particles from the [^125I]-human eotaxin excite, by its proximity, the fluorophore in the beads and produce light.
Preparation of Assay Buffer 5.96 g HEPES and 7.0 g sodium chloride are dissolved in distilled H2O and 1 M aq. CaCl2 (1 ml) and 1 M aq. MgCl2 (5 ml) are added. The pH is adjusted to 7.6 with NaOH and the solution made to a final volume of 1 L using distilled H2O. 5 g of bovine serum albumin and 0.1 g NaN3 are dissolved in the solution and the resulting buffer stored at 4° C. […]
The assay is performed in a final volume of 250 μl per well of an Optiplate™ microplate (ex Canberra Packard). […] The resulting scintillations are counted using a Canberra Packard TopCount™ scintillation counter, each well being counted for 1 minute. […]

In the case of `O=C(C=C1CCN(Cc2ccc(F)cc2)CC1)NCc1ccc(F)c(F)c1` [Example 1, N-(3,4-Difluoro-benzyl)-2-[1-(4-fluoro-benzyl)-piperidin-4-ylidene]-acetamide], the melting point fell in the range of 83 to 85 °C.
Take `O=C(C=C1CCN(CCc2ccc(F)cc2)CC1)NCc1ccc(F)c(F)c1` [Example 17, N-(3,4-Difluoro-benzyl)-2-{1-[2-(4-fluoro-phenyl)-ethyl]-piperidin-4-ylidene}-acetamide]: the melting point was in the range of 117 to 120 °C. Besides, the pIC50 on human CCR3 is roughly 6.70.
